Assay results: ChEMBL document CHEMBL4017473, “Discovery of LRRK2 inhibitors by using an ensemble of virtual screening methods” (Bioorg Med Chem Lett, 2017)

How the values were obtained:
[1] = target: Leucine-rich repeat serine/threonine-protein kinase 2 (Homo sapiens, UniProt Q5S007, G2019S); experiment: Inhibition of LRRK2 G2019S mutant (unknown origin) using biotinylated ezrin/radaxin/meosin peptide as substrate measured after 1 hr
[2] = target: Leucine-rich repeat serine/threonine-protein kinase 2 (Homo sapiens, UniProt Q5S007); experiment: Inhibition of full length wild-type LRRK2 (unknown origin) using biotinylated ezrin/radaxin/meosin peptide as substrate measured after 1 hr
Chain of Leucine-rich repeat serine/threonine-protein kinase 2 (Homo sapiens, UniProt Q5S007) (Q5S007 whole entry): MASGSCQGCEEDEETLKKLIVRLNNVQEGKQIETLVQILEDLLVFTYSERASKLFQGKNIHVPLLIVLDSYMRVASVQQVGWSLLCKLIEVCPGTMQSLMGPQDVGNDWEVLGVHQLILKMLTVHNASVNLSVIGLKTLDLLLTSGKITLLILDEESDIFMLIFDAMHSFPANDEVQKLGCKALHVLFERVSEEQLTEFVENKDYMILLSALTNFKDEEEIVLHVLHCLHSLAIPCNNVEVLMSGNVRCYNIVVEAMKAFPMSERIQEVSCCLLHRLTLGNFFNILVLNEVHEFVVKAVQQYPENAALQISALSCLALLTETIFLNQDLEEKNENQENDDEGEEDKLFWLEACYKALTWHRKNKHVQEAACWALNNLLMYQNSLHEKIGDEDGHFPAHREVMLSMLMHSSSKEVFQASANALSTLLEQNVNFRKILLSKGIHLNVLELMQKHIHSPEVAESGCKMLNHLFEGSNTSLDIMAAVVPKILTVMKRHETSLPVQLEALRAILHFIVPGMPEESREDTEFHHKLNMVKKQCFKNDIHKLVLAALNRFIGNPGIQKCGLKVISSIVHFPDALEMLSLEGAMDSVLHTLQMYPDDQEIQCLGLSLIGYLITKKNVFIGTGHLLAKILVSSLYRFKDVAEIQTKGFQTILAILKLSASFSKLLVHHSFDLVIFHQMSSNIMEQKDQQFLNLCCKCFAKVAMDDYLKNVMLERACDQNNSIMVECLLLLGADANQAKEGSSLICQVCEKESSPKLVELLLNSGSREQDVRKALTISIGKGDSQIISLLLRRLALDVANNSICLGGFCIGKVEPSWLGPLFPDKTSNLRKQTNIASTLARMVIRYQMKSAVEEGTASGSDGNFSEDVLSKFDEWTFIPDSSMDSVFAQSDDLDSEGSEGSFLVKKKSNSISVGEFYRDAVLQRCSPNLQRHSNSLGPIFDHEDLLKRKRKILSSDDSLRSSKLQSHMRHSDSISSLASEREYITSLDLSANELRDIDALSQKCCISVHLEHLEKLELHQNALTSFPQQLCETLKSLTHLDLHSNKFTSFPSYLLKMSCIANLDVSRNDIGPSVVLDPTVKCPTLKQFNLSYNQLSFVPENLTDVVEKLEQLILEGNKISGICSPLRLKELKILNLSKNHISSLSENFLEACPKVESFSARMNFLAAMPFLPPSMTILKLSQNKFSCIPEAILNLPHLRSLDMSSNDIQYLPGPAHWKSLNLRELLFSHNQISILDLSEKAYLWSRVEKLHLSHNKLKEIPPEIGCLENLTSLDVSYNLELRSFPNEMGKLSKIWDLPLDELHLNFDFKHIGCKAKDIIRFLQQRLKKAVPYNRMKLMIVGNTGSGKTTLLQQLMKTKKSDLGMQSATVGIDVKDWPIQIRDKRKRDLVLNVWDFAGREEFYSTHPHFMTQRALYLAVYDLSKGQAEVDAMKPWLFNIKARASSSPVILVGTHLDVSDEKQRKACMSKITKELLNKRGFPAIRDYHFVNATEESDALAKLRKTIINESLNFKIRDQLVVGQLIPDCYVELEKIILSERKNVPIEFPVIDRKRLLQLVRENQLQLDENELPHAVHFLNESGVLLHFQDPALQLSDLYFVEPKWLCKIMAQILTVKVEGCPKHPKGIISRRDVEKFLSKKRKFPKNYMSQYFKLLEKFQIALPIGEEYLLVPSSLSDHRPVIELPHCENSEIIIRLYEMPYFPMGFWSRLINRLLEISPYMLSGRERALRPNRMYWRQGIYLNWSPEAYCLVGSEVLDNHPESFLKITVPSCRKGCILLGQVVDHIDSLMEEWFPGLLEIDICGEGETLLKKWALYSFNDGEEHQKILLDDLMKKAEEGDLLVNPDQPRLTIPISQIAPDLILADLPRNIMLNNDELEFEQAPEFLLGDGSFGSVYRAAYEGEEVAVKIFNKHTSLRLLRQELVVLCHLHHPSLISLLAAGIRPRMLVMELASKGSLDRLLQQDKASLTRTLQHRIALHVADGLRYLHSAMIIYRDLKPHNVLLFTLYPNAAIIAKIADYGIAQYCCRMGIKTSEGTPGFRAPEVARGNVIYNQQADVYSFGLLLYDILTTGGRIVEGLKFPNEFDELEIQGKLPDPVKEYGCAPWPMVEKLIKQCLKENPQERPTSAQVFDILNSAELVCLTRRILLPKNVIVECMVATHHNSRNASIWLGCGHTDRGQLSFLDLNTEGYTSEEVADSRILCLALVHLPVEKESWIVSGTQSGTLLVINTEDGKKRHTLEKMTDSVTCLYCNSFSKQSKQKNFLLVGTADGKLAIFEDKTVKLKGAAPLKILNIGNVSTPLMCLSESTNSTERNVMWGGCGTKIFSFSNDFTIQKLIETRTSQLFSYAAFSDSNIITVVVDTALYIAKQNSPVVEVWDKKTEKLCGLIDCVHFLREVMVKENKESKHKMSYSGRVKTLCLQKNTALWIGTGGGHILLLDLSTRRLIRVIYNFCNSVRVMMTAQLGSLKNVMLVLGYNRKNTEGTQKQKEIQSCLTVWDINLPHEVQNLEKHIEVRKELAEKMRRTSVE

Chain of Leucine-rich repeat serine/threonine-protein kinase 2 (Homo sapiens, UniProt Q5S007, G2019S) (Q5S007 whole entry G2019S): as the sequence (Q5S007 whole entry) above, with G2019S counted along it

| SMILES | IC50 [1] [nM] | IC50 [2] [nM] | Ki [2] [nM] |
| --- | --- | --- | --- |
| COc1cccc(Nc2nc(NCCO)c3nc[nH]c3n2)c1 | 48 | 84 |  |
| O=c1[nH]ccc2nc(N3CCC(O)CC3)nc(Nc3cccc(C(F)(F)F)c3)c12 |  |  | 54 |
| Clc1c[nH]c2ncc(-c3cncc(N4CCOCC4)n3)cc12 | ≤ 500 |  |  |
| CN(C)S(=O)(=O)c1ccc(C(=O)Nc2nc3ccccc3n2-c2ccccc2)o1 | > 10000 | > 10000 |  |
| CCOc1ccc(Nc2nc(N3CCOCC3)c3nc[nH]c3n2)cc1 | 355 | 351 |  |
| COc1cc(N2CCOCC2)ccc1Nc1ncc(F)c(Nc2ccccc2NS(C)(=O)=O)n1 | 1.9 | 1.3 |  |
| Cc1ccccc1Nc1nc2ccc(-c3cc(C)c(O)c(C)c3)cn2n1 |  | 10 |  |

Continued, values first:

| IC50 [1] [nM] | IC50 [2] [nM] | Ki [2] [nM] | SMILES |
| --- | --- | --- | --- |
|  | 3 |  | c1cc(-c2n[nH]c3ccnc(OC4CCOCC4)c23)cc(N2CCCC2)n1 |
| 633 | 825 |  | NC(=O)c1ccc(Nc2nc(N3CCOCC3)c3ccccc3n2)cc1 |
| 274 | 343 |  | CCn1c(NC(=O)c2ccnc(-n3ccnc3)c2)nc2ccccc21 |
|  | ≤ 6 |  | C[C@@H](Nc1c(C(N)=O)nnc2cc(-c3ccncc3)ccc12)C1CC1 |
